The text below walks through data of article PMC12444550, “Design, Synthesis, and Trypanosomicidal Evaluation of Eugenol-Based Azole Hybrids: Discovery of an In Vitro Active and Selective Compound” (ACS Omega, 2025).

The subject of data set [1] is T. cruzi Y strain trypomastigote forms. Kind of data set: Anti-T. cruzi activity against trypomastigote forms. The settings on record: Trypanosoma cruzi, 24 h, 24 h of incubation; Y strain; read-out: Y strain T. cruzi EC50 Trypomastigote. The data set is classed as cell-based. As to the method: The T. cruzi Y strain was selected for this study due to its known partial sensitivity to benznidazole chemotherapy.
Trypomastigote forms of T. cruzi (2.5 × 10^5 parasites/well) were incubated in 96-well plates with serial dilutions of the hybrid compounds (100, 50, 25, and 12.5 μmol·L^–1) for 24 h at 37 °C in a humidified 5% CO2 atmosphere. Following incubation, parasite viability was assessed under an optical microscope by evaluating motility, and the number of live parasites was quantified using a Neubauer chamber. Untreated parasite cultures were maintained in parallel as negative controls. The mortality percentage was calculated by comparing the number of live parasites in treated wells to that of untreated controls. All experiments were conducted in triplicate with at least two technical replicates per concentration. EC50 values were determined by nonlinear regression using GraphPad Prism 8 and CompuSyn software (Biosoft, U.K.).

The next data set deals with Trypanosoma cruzi. The settings on record: cited from earlier work.
The next data set relates to T. cruzi epimastigotes. Further details: method as in Brancaglion and coauthors. To be noted: ref Brancaglion and coauthors; read-out: in vitro IC50 against epimastigotes; cited from earlier work.
In data set [2] the test system is T. cruzi intracellular amastigote forms. To be noted: in vitro; cited from earlier work.

The EC50 is the midpoint of the concentration-response curve. Turning to `O=C(Cn1ccnc1[N+](=O)[O-])NCc1ccccc1` [Bz, benznidazole], the EC50 in data set [1] was found to be 21 µM. Also, the parasitological cure rates in the data set with Trypanosoma cruzi (acute or early congenital infections) was 80–90%. The “treatment discontinuation due to adverse effects” value in the data set on Trypanosoma cruzi (dermatological, gastrointestinal and neurological symptoms) is listed as 10–20 % of patients.
As a reminder, the IC50 is the concentration needed to halve the response being measured. On to `CCCc1cc(OC)c2oc(=O)c(C(=O)c3ccc([N+](=O)[O-])cc3)cc2c1` [nitrobenzoyl derivative, 8-methoxy-3-(4-nitrobenzoyl)-6-propyl-2H-cromen-2-one], for which the IC50 with T. cruzi epimastigotes was 28 µM.
Regarding `CC[C@@H]([C@H](C)O)n1ncn(-c2ccc(N3CCN(c4ccc(OC[C@@H]5CO[C@@](Cn6cncn6)(c6ccc(F)cc6F)C5)cc4)CC3)cc2)c1=O` [posaconazole], in data set [2], the “inhibitory concentration against intracellular amastigotes (in words)” value was “subnanomolar concentrations”.
Regarding `C[C@@H](c1nc(-c2ccc(C#N)cc2)cs1)[C@](O)(Cn1cncn1)c1ccc(F)cc1F` [ravuconazole], the “inhibitory concentration against intracellular amastigotes (in words)” value in data set [2] is given as “subnanomolar concentrations”.
